Assays:
[1] = system: B-Raf^V600E mutant A375 melanoma cell; test: Cell proliferation assay (CELLTITER 96), A375; assay type: cell-based; details: Homo sapiens, A-375; A375, 72 hours; read-out: Cytotoxicity (IC50 Ranking) A375 (B-Raf^V600E)
Method: (§1) Inhibition of cell growth by compounds was measured using CELLTITER 96® assay. The cytotoxicity of compounds was evaluated in B-Raf^V600E mutant A375 melanoma cell, B-Raf^V600E mutant COLO205 colon cancer cell, and SK-MEL-2 melanoma cell with wild type B-Raf (B-Raf^wt) and NRASQ^Q61R mutation. A375 and COLO205 cell line were cultured in DMEM containing 10% FCS and incubated at 37° C. in 5% CO2 atmosphere. SK-MEL-2 cell line was cultured in MEM containing 10% FCS and incubated at 37° C. in 5% CO2 atmosphere. A375, COLO205 and SK-MEL-2 cell were seeded into 96-well plates at 2000, 2000, and 4000 cells/well, respectively, and allowed to adhere for overnight. Then, these seeded cells were treated with increasing concentrations of the test compounds and incubated for another 72 hours. At the end of the incubation, CELLTITER 96® Aqueous One Solution Reagent (Promega) was added and incubated for 4 hours. Cell viability was determined by measuring absorbance at 490 nm using EMAX® microplate reader (Molecular Devices).
(§2) The 50% inhibitory concentration (IC50) value was calculated by plotting the percentage of growth inhibition against the concentration of compound, using GraphPad Prism5 software for curve fitting.

B-Raf^V600E kinase = target: T1, B-Raf^V600E kinase (Homo sapiens, UniProt P15056, V600E); test: B-Raf V600E kinase assay ([33P] incorporation into MEK1 K97R); assay type: biochemical; details: recombinant B-Raf^V600E, 8 μM ATP, 30 min, 30° C.; read-out: IC50 ranking against B-Raf^V600E kinase
T1 construct: purchased Upstate Biotechnology
T1 sequence (P15056 whole entry V600E): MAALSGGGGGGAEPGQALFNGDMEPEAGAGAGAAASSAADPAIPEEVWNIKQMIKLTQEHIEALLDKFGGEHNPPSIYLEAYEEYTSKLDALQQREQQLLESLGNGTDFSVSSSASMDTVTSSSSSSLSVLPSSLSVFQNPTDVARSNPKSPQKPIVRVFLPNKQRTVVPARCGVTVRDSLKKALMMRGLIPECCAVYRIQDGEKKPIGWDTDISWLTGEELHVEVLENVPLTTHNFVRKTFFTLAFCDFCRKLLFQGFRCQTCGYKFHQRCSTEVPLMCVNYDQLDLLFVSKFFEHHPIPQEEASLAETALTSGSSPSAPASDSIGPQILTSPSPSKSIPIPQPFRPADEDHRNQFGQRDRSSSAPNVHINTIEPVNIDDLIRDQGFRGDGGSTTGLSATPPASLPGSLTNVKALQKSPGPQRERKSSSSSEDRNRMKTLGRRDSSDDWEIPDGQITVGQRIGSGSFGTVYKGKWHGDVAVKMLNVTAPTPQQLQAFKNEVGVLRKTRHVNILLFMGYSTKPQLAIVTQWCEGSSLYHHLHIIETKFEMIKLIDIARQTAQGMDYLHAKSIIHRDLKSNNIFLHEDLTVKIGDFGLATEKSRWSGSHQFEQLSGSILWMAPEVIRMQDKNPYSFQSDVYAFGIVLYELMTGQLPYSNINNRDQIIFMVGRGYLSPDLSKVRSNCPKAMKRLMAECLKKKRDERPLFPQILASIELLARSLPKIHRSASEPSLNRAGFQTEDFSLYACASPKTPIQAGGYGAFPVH
Method: (§3) Inhibition of kinase activity by a test compound disclosed herein was estimated by quantifying the amount of [^33P] incorporation of a substrate in the presence of the test compound. Standard assay conditions were 5 ng of recombinant B-Raf^V600E kinase (Upstate Biotechnology) with 500 ng MEK1 (K97R) in assay buffer (8 μM ATP, 0.5 μCi [^33P]ATP (specific activity 3000 Ci/mmol, PerkinElmer), 50 mM Tris/HCl (pH 7.5), and 1 mM EGTA, 1 mM Na3VO4, 1% 2-mercaptoethanol, 0.1% Brij 35, and 0.2 mg/ml BSA), and the test compound (diluted with 4% DMSO) or DMSO alone (as a control) in a final volume of 25 μL. Reactions were incubated at 30° C. for 30 min and stopped by adding 3% phosphoric acid, harvested onto a 96-well GF/B UniFilter (PerkinElmer) using a unifilter harvester (PerkinElmer), and counted with a TopCount microplate scintillation counter (PerkinElmer). The IC50 values of inhibitors were determined after carrying out assays at 3-fold serially diluted concentrations of each compound in duplication. The results were analyzed using linear regression software (GraphPad Prism 4; GraphPad Software Inc.).

C-Raf kinase = target: T2, C-Raf kinase (Homo sapiens, UniProt P04049); test: C-Raf kinase assay ([33P] incorporation into MEK1 K97R); assay type: biochemical; details: recombinant C-Raf, 8 μM ATP, 30 min, 30° C.; read-out: IC50 ranking against C-Raf kinase
T2 construct: purchased Upstate Biotechnology
T2 sequence (P04049 whole entry): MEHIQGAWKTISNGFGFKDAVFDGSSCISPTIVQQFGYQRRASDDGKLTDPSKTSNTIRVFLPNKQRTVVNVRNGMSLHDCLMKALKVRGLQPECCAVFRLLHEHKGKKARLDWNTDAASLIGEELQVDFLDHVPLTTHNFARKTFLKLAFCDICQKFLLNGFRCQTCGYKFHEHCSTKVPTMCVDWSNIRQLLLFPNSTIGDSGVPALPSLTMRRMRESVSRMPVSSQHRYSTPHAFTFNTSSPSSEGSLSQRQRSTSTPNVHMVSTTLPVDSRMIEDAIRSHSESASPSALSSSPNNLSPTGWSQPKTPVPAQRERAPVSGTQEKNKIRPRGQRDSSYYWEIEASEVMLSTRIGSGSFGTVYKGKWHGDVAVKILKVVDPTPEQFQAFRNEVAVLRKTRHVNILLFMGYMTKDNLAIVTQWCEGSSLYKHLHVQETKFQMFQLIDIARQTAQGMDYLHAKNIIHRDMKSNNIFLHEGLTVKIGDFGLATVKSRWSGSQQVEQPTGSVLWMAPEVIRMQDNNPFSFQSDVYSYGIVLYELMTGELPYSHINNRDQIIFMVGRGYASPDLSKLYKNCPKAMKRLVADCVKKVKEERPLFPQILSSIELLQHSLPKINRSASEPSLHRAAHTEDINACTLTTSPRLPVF
Method: as §3, with “were 2” for “were 5”, “recombinant C-Raf” for “recombinant B-Raf^V600E”, “ng MEK1(K97R)” for “ng MEK1 (K97R)”

[2] = system: B-Raf^V600E mutant COLO205 colon cancer cell; test: Cell proliferation assay (CELLTITER 96), COLO205; assay type: cell-based; details: Homo sapiens, COLO 205; COLO205, 72 hours; read-out: Cytotoxicity (IC50 Ranking) COLO205 (B-Raf^V600E)
Method: as §1, §2

B-Raf kinase = target: T3, B-Raf kinase (Homo sapiens, UniProt P15056); test: B-Raf kinase assay ([33P] incorporation into MEK1 K97R); assay type: biochemical; details: recombinant B-Raf, 8 μM ATP, 30 min, 30° C.; read-out: IC50 ranking against B-Raf kinase
T3 construct: purchased Upstate Biotechnology
T3 sequence (P15056 whole entry): as the sequence (P15056 whole entry V600E) above, with E600V counted along it
Method: Inhibition of kinase activity by a test compound disclosed herein was estimated by quantifying the amount of [^33P] incorporation of a substrate in the presence of the test compound. Standard assay conditions were 5 ng of recombinant B-Raf kinase (Upstate Biotechnology) with 500 ng MEK1(Map-erk kinase; K97R) in the assay buffer (8 μM ATP, 0.5 μCi [^33P]ATP (specific activity 3000 Ci/mmol, PerkinElmer), 50 mM Tris/HCl (pH 7.5), and 1 mM EGTA, 1 mM Na3VO4, 1% 2-mercaptoethanol, 0.1% Brij 35, and 0.2 mg/ml BSA) in a final volume of 25 μL. Reactions were incubated at 30° C. for 30 min and stopped by adding 3% phosphoric acid, harvested onto a 96-well GF/B UniFilter (PerkinElmer) using a unifilter harvester (PerkinElmer), and counted with a TopCount microplate scintillation counter (PerkinElmer). The IC50 values of inhibitors were determined after carrying out assays at 3-fold serially diluted concentrations of each compound in duplication. The results were analyzed using linear regression software (GraphPad Prism 4; GraphPad Software Inc.).

[3] = system: SK-MEL-2 melanoma cell with wild type B-Raf (B-Raf^wt) and NRAS^Q61R mutation; test: Cell proliferation assay (CELLTITER 96), SK-MEL-2; assay type: cell-based; details: Homo sapiens; SK-MEL-2, 72 hours; given as bound; read-out: Cytotoxicity (IC50 Ranking) SK-MEL-2 (NRAS^Q61R, B-Raf^wt)
Method: as §1, §2

Row | SMILES | IC50 [1] | IC50 (B-Raf^V600E kinase) | IC50 (C-Raf kinase) | IC50 [2] | IC50 (B-Raf kinase) | IC50 [3]
1 | CCCS(=O)(=O)Nc1ccc(F)c(Nc2ccc3ncc(Nc4c(F)ccc(NS(=O)(=O)CCC)c4F)nc3c2)c1F [compound 1, N1-3-[(3-{2,6-difluoro-3-[(propylsulfonyl)amino]anilino}-6-quinoxalinyl)amino]-2,4-difluorophenyl-1-propanesulfonamide] | 1000 to 10000 nM | < 300 nM | < 300 nM | 1000 to 10000 nM | < 300 nM | > 10000 nM
2 | CCCS(=O)(=O)Nc1ccc(F)c(Nc2ccc3ncc(Nc4c(F)cccc4F)nc3c2)c1F [compound 2, N1-(3-{[3-(2,6-difluoroanilino)-6-quinoxalinyl]amino}-2,4-difluorophenyl)-1-propanesulfonamide] | 300 to 1000 nM | < 300 nM | < 300 nM | 300 to 1000 nM | < 300 nM | > 10000 nM
3 | CCCS(=O)(=O)Nc1ccc(F)c(Nc2ccc3ncc(OC)nc3c2N)c1F [compound 3, N1-{3-[(5-amino-3-methoxy-6-quinoxalinyl)amino]-2,4-difluorophenyl}-1-propanesulfonamide] |  | 300 to 1000 nM | 300 to 1000 nM |  | 300 to 1000 nM | 
4 | CCCS(=O)(=O)Nc1ccc(F)c(Nc2ccc3ncc(OC)nc3c2[N+](=O)[O-])c1F [compound 4, N1-{2,4-difluoro-3-[(3-methoxy-5-nitro-6-quinoxalinyl)amino]phenyl}-1-propanesulfonamide] | < 300 nM | < 300 nM | < 300 nM | < 300 nM | < 300 nM | > 10000 nM
5 | COc1cnc2ccc(Nc3c(F)ccc(NS(=O)(=O)CCCF)c3F)c([N+](=O)[O-])c2n1 [compound 5, N1-{2,4-difluoro-3-[(3-methoxy-5-nitro-6-quinoxalinyl)amino]phenyl}-3-fluoro-1-propanesulfonamide] | < 300 nM | < 300 nM | < 300 nM | < 300 nM | < 300 nM | > 10000 nM
6 | CCCS(=O)(=O)Nc1ccc(F)c(Nc2ccc3ncc(OCCN4CCOCC4)nc3c2[N+](=O)[O-])c1F [compound 6, N1-(2,4-difluoro-3-{[3-(2-morpholinoethoxy)-5-nitro-6-quinoxalinyl]amino}phenyl)-1-propanesulfonamide] | < 300 nM | < 300 nM | < 300 nM | < 300 nM | < 300 nM | > 10000 nM
7 | CCCS(=O)(=O)Nc1ccc(F)c(Nc2ccc3ncc(OCCOC)nc3c2[N+](=O)[O-])c1F [compound 7, N1-(2,4-difluoro-3-[3-(2-methoxyethoxy)-5-nitro-6-quinoxalinyl]aminophenyl)-1-propanesulfonamide] | < 300 nM | < 300 nM | < 300 nM | < 300 nM | < 300 nM | > 10000 nM
8 | CCCS(=O)(=O)Nc1ccc(F)c(Nc2ccc3ncc(NC(=O)C4CC4)nc3c2)c1F [compound 8, N1-(7-{2,6-difluoro-3-[(propylsulfonyl)amino]anilino}-2-quinoxalinyl)-1-cyclopropanecarboxamide] | 1000 to 10000 nM | 300 to 1000 nM | 300 to 1000 nM | 1000 to 10000 nM | 300 to 1000 nM | > 10000 nM
9 | CCCS(=O)(=O)Nc1ccc(F)c(Nc2cc3nc(OC)cnc3cc2C)c1F [compound 32, N-(2,4-difluoro-3-(3-methoxy-7-methylquinoxalin-6-ylamino)phenyl)propane-1-sulfonamide] |  |  |  |  | 1000 to 10000 nM | 
10 | CCCS(=O)(=O)Nc1cc(Nc2ccc3ncc(OC)nc3c2C#N)ccc1C [compound 45, N-(5-(5-cyano-3-methoxyquinoxalin-6-ylamino)-2-methylphenyl)propane-1-sulfonamide] |  | 1000 to 10000 nM | 1000 to 10000 nM |  | 1000 to 10000 nM | 

Source: patent US10745360B2, “Quinoxaline compounds, method for preparing the same and use thereof” (Development Center for Biotechnology, priority 2014, dated 2020)
